pIC50: −log10 of the molar value.
Legend:
[1] = target: VEGFR2 (cytoplasmic domain KDR protein) (Homo sapiens (Human), UniProt P35968); assay: VEGFR2 Kinase Assay (biochemical KDR kinase assay); settings: 2.7 μM ATP, poly-Glu-Tyr substrate; read-out: Enzyme VEGFR2 IC50
Description: Biochemical KDR kinase assays were performed in 96 well microtiter plates that were coated overnight with 75 μg/well of poly-Glu-Tyr (4:1) in 10 mM Phosphate Buffered Saline (PBS), pH 7.4. The coated plates were washed with 2 mls per well PBS+0.05% Tween-20 (PBS-T), blocked by incubation with PBS containing 1% BSA, then washed with 2 mls per well PBS-T prior to starting the reaction. Reactions were carried out in 100 μL reaction volumes containing 2.7 μM ATP in kinase buffer (50 mM Hepes buffer pH 7.4, 20 mM MgCl2, 0.1 mM MnCl2 and 0.2 mM Na3VO4). […] Reactions were initiated by the addition 20 μl per well of kinase buffer containing 200-300 ng purified cytoplasmic domain KDR protein (BPS Bioscience, San Diego, Calif.). Following a 15 minute incubation at 30° C., the reactions were washed 2 mls per well PBS-T. 100 μl of a monoclonal anti-phosphotyrosine antibody-peroxidase conjugate diluted 1:10,000 in PBS-T was added to the wells for 30 minutes. Following a 2 mls per well wash with PBS-Tween-20, 100 μl of O-Phenylenediamine Dihydrochloride in phosphate-citrate buffer, containing urea hydrogen peroxide, was added to the wells for 7-10 minutes as a colorimetric substrate for the peroxidase. The reaction was terminated by the addition of 100 μl of 2.5N H2SO4 to each well and read using a microplate ELISA reader set at 492 nm. IC50 values for compound inhibition were calculated directly from graphs of optical density (arbitrary units) versus compound concentration following subtraction of blank values.

VEGFR2 = VEGFR2 (Homo sapiens (Human), UniProt P35968); assay: VEGFR2 Cellular Assay (FLIPR, VEGF induced intracellular calcium in HUVEC); assay type: cell-based; settings: VEGF165 stimulation 10 ng/mL, read-out: Receptor VEGFR2 IC50
Chain of VEGFR2 (P35968 20-1356): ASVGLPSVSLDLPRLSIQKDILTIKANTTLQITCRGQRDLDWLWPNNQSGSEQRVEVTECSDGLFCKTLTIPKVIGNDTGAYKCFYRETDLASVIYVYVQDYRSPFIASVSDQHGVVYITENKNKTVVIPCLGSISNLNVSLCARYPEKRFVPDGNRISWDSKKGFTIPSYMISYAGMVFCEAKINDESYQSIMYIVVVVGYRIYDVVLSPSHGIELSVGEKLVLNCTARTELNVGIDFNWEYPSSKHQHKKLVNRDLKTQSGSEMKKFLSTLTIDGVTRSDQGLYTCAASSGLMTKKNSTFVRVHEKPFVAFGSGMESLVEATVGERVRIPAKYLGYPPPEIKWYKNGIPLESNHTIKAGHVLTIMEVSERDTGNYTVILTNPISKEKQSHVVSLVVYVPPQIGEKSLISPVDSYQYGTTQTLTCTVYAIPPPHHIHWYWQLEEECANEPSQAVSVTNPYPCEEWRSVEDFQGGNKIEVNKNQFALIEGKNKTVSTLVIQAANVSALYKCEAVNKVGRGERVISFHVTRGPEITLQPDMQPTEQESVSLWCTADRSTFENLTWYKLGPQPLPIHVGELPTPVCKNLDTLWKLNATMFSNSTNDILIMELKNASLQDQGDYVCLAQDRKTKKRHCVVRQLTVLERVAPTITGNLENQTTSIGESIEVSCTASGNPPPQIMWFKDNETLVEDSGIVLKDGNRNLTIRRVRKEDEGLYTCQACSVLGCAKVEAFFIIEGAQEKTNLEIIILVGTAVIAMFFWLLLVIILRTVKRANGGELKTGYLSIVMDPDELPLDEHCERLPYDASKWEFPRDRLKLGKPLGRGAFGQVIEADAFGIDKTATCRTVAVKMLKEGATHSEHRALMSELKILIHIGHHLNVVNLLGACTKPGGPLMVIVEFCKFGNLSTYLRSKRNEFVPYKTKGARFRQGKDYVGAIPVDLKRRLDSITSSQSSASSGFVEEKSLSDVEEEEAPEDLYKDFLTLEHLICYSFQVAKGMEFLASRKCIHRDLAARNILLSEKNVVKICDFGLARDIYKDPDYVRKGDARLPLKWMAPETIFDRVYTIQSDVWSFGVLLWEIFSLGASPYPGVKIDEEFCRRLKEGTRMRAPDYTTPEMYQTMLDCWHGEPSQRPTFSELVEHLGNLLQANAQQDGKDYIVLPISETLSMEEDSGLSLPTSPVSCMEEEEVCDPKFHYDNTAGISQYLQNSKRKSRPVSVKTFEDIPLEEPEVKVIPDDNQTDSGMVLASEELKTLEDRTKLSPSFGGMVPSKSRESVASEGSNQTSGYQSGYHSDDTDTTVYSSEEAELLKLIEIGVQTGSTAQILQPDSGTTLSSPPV
Description: (§1) VEGFR2 Cellular Assay Automated FLIPR (Fluorometric Imaging Plate Reader) technology was used to screen for inhibitors of VEGF induced increases in intracellular calcium levels in fluorescent dye loaded endothelial cells. HUVEC (human umbilical vein endothelial cells) (Clonetics) were seeded in 384-well fibronectin coated black-walled plates overnight at 37° C./5% CO2. Cells were loaded with calcium indicator Fluo-4 for 45 minutes at 37° C. Cells were washed 2 times (Elx405, Biotek Instruments) to remove extracellular dye. For screening, cells were pre-incubated with test agents for 30 minutes, at a single concentration (10 μM) or at concentrations ranging from 0.0001 to 10.0 μM followed by VEGF165 stimulation (10 ng/mL). […] Data were generated by determining max-min fluorescence levels for unstimulated, stimulated, and drug treated samples. IC50 values for test compounds were calculated from % inhibition of VEGF stimulated responses in the absence of inhibitor.

PDGFRβ = PDGFRβ (Homo sapiens (Human), UniProt P09619); assay: PDGFRβ Cellular Assay (FLIPR, PDGF-induced intracellular calcium in NHDF-Ad); assay type: cell-based; settings: PDGF-BB stimulation 30 ng/mL, read-out: Receptor PDGFRβ IC50
Chain of PDGFRβ (P09619 33-1106): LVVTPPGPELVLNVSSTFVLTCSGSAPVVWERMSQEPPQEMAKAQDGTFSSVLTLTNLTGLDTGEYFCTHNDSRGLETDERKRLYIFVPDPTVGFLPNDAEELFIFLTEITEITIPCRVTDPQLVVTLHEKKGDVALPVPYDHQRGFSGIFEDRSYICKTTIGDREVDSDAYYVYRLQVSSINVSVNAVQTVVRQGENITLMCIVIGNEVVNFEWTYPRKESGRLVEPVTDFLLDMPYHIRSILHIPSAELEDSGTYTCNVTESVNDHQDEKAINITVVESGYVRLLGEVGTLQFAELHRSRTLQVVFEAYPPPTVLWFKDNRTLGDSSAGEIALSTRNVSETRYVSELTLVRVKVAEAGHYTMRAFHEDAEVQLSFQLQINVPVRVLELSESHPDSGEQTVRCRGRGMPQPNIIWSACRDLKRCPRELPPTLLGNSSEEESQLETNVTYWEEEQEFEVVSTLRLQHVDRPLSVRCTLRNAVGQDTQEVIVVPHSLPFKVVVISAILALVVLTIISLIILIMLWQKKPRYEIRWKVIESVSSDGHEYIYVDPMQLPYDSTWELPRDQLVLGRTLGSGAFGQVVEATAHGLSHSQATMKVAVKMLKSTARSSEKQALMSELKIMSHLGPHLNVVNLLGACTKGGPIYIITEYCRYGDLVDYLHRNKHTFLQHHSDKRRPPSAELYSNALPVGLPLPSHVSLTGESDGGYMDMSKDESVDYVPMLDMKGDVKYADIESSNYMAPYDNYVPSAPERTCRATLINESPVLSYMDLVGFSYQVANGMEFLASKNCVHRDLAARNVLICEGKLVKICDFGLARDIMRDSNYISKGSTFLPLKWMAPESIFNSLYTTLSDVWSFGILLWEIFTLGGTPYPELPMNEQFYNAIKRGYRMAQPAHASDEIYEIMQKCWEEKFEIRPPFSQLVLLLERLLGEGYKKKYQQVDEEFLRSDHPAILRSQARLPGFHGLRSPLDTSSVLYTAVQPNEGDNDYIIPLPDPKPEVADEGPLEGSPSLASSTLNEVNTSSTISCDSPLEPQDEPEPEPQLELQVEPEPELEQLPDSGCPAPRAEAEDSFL
Description: as §1, with “Automated” for “VEGFR2 Cellular Assay Automated”, “of PDGF-induced” for “of VEGF induced”, “cells. NHDF-Ad (Normal Human Dermal Fibroblasts, Adult; Lonza)” for “cells. HUVEC (human umbilical vein endothelial cells) (Clonetics)”, “by PDGF-BB” for “by VEGF165”, “stimulation (30” for “stimulation (10”, “of PDGF-BB” for “of VEGF”

[2] = target: PDGFRβ (cytoplasmic domain PDGFR-b protein) (Homo sapiens (Human), UniProt P09619); assay: PDGFRβ Kinase Assay; assay type: biochemical; settings: 36 μM ATP, poly-Glu-Tyr substrate; read-out: Enzyme PDGFRβ IC50
Chain of PDGFRβ (cytoplasmic domain PDGFR-b protein) (P09619 554-1106): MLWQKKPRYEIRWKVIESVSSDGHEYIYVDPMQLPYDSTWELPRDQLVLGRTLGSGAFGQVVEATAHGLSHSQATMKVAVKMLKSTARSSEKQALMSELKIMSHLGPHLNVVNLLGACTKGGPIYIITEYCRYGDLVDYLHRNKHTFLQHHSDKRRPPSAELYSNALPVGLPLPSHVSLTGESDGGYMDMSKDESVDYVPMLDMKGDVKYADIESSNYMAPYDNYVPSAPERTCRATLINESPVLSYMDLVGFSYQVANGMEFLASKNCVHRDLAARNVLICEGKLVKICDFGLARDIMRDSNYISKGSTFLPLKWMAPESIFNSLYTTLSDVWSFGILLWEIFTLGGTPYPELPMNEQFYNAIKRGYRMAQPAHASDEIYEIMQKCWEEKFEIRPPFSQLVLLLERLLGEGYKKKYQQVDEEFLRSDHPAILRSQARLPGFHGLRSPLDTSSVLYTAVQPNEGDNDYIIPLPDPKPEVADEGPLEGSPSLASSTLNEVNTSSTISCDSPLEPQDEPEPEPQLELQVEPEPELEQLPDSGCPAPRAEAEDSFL
Description: Biochemical PDGFRβ kinase assays were performed in 96 well microtiter plates that were coated overnight with 75 μg of poly-Glu-Tyr (4:1) in 10 mM Phosphate Buffered Saline (PBS), pH 7.4. The coated plates were washed with 2 mls per well PBS+0.05% Tween-20 (PBS-T), blocked by incubation with PBS containing 1% BSA, then washed with 2 mls per well PBS-T prior to starting the reaction. […] Reactions were initiated by the addition 20 μl per well of kinase buffer containing 200-300 ng purified cytoplasmic domain PDGFR-b protein (Millipore). Following a 60 minute incubation at 30° C., the reactions were washed 2 mls per well PBS-T. 100 μl of a monoclonal anti-phosphotyrosine antibody-peroxidase conjugate diluted 1:10,000 in PBS-T was added to the wells for 30 minutes. Following a 2 mls per well wash with PBS-Tween-20, 100 μl of O-Phenylenediamine Dihydrochloride in phosphate-citrate buffer, containing urea hydrogen peroxide, was added to the wells for 7-10 minutes as a colorimetric substrate for the peroxidase. […] IC50 values for compound inhibition were calculated directly from graphs of optical density (arbitrary units) versus compound concentration following subtraction of blank values.

Chain of VEGFR2 (cytoplasmic domain KDR protein) (P35968 786-1356): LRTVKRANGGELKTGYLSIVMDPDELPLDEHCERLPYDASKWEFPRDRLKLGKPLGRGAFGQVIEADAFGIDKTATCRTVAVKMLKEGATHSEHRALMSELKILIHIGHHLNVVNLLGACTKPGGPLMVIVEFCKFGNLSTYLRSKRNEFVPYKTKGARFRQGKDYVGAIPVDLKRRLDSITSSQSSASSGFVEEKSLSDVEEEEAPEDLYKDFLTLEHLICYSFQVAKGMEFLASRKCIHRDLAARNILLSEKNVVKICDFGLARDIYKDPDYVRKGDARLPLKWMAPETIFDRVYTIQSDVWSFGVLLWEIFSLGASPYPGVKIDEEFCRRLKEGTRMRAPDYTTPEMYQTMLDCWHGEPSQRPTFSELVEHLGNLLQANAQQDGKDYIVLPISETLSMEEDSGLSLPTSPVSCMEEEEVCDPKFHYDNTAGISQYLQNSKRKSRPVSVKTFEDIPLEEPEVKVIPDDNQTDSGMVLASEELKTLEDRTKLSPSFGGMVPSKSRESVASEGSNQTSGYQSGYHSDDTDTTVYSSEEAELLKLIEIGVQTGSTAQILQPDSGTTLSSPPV

Row | pIC50 [1] | pIC50 (VEGFR2) | pIC50 (PDGFRβ) | pIC50 [2] | SMILES
1 | 5.63 | < 5.00 | 4.75 | 7.57 | O=C(Nc1cccc(C#Cc2ccc3nccn3n2)c1)c1ccccc1 [Example 27, N-[3-(imidazo[1,2-b]pyridazin-6-ylethynyl)phenyl]benzamide]
2 | 5.79 | < 5.00 | < 5.00 | 5.57 | O=C(Nc1cccc(C#Cc2ccc3nccn3n2)c1)c1cc2ccccc2o1 [Example 25, N-[3-(imidazo[1,2-b]pyridazin-6-ylethynyl)phenyl]-1-benzofuran-2-carboxamide]
3 | 6.90 | 5.69 |  | 7.37 | O=C(Nc1ccc(C#Cc2ccc3nccn3n2)cc1)Nc1ccc(Cl)c(C(F)(F)F)c1 [Example 7, 1-[4-chloro-3-(trifluoromethyl)phenyl]-3-[4-(imidazo[1,2-b]pyridazin-6-ylethynyl)phenyl]urea]
4 | 7.33 | 6.02 | 6.34 | 7.49 | O=C(Nc1ccc(C#Cc2ccc3nccn3n2)cc1)Nc1cccc(C(F)(F)F)c1 [Example 2, 1-[4-(imidazo[1,2-b]pyridazin-6-ylethynyl)phenyl]-3-[3-(trifluoromethyl)phenyl]urea]
5 | 6.53 | 6.06 |  | 5.82 | Cc1cccc(C(=O)Nc2cccc(C#Cc3ccc4nccn4n3)c2)c1 [Example 23, N-[3-(imidazo[1,2-b]pyridazin-6-ylethynyl)phenyl]-3-methylbenzamide]
6 | 7.64 | 6.88 | 7.15 | 7.10 | Cc1cccc(NC(=O)Nc2ccc(C#Cc3ccc4nccn4n3)cc2)c1 [Example 3, 1-[4-(imidazo[1,2-b]pyridazin-6-ylethynyl)phenyl]-3-(3-methylphenyl)urea]
7 | 6.55 | 5.89 | 5.79 | 6.20 | O=C(Nc1cccc(C#Cc2ccc3nccn3n2)c1)c1cccc(C(F)(F)F)c1 [Example 22, N-[3-(imidazo[1,2-b]pyridazin-6-ylethynyl)phenyl]-3-(trifluoromethyl)benzamide]
8 | 6.35 | 5.07 |  | 7.03 | O=C(Nc1ccc(C#Cc2ccc3nccn3n2)cc1)Nc1cc(C(F)(F)F)ccc1F [Example 9, 1-[2-fluoro-5-(trifluoromethyl)phenyl]-3-[4-(imidazo[1,2-b]pyridazin-6-ylethynyl)phenyl]urea]
9 | 6.57 | 5.27 |  | 6.73 | O=C(Nc1ccccc1)Nc1ccc(C#Cc2ccc3nccn3n2)cc1 [Example 8, 1-[4-(imidazo[1,2-b]pyridazin-6-ylethynyl)phenyl]-3-phenylurea]
10 | 5.33 |  |  | < 5.00 | Cc1ccc(F)c(NC(=O)Nc2cccc(C#Cc3ccc4nccn4n3)c2)c1 [Example 29, 1-(2-fluoro-5-methylphenyl)-3-[3-(imidazo[1,2-b]pyridazin-6-ylethynyl)phenyl]urea]

Second part, the compound before the results:

Row | SMILES | pIC50 [1] | pIC50 (VEGFR2) | pIC50 (PDGFRβ) | pIC50 [2]
11 | Cc1ccc(F)c(NC(=O)Nc2cccc(C#Cc3cccc4[nH]nc(N)c34)c2)c1 [Example 31, 1-{3-[(3-amino-1H-indazol-4-yl)ethynyl]phenyl}-3-(2-fluoro-5-methylphenyl)urea] | 7.68 | 7.80 |  | 
12 | Cc1ccc(F)c(NC(=O)Nc2ccc(C#Cc3ccc4nccn4n3)cc2)c1 [Example 6, 1-(2-fluoro-5-methylphenyl)-3-[4-(imidazo[1,2-b]pyridazin-6-ylethynyl)phenyl]urea] | 7.00 |  |  | 
13 | O=C(Nc1ccc(C#Cc2ccc3nc(NC(=O)Nc4cc(C(F)(F)F)ccc4F)cn3n2)cc1)Nc1cc(C(F)(F)F)ccc1F [Example 10, 1-[2-fluoro-5-(trifluoromethyl)phenyl]-3-[4-({2-[({[2-fluoro-5-(trifluoromethyl)phenyl]amino}carbonyl)amino]imidazo[1,2-b]pyridazin-6-yl}ethynyl)phenyl]urea] | 5.84 | < 5.00 | < 5.00 | < 5.00
14 | CC(=O)Nc1cn2nc(C#Cc3ccc(NC(=O)Nc4cccc(C)c4)cc3)ccc2n1 [Example 11, N-(6-{[4-({[(3-methylphenyl)amino]carbonyl}amino)phenyl]ethynyl}imidazo[1,2-b]pyridazin-2-yl)acetamide] | 5.50 | < 5.00 | < 5.00 | 
15 | Cc1cccc(NC(=O)Nc2ccc(C#Cc3ccc4nc(N)cn4n3)cc2)c1 [Example 1, 1-{4-[(2-aminoimidazo[1,2-b]pyridazin-6-yl)ethynyl]phenyl}-3-(3-methylphenyl)urea] | 7.70 | 7.29 | 6.64 | 7.47
16 | Cc1ccc(NC(=O)Nc2ccc(C#Cc3ccc4nccn4n3)cc2)cc1 [Example 13, 1-[4-(imidazo[1,2-b]pyridazin-6-ylethynyl)phenyl]-3-(4-methylphenyl)urea] |  |  |  | 7.17
17 | Nc1cn2nc(C#Cc3ccc(NC(=O)c4ccccc4)cc3)ccc2n1 [Example 19, N-{4-[(2-aminoimidazo[1,2-b]pyridazin-6-yl)ethynyl]phenyl}benzamide] | 5.90 | < 5.00 | < 5.00 | < 5.00
18 | Cc1ccc(F)c(NC(=O)Nc2ccccc2C#Cc2ccc3nccn3n2)c1 [Example 30, 1-(2-fluoro-5-methylphenyl)-3-[2-(imidazo[1,2-b]pyridazin-6-ylethynyl)phenyl]urea] | 5.74 |  |  | < 5.00
19 | Cc1ccc(F)c(NC(=O)Nc2ccc(C#Cc3cccc4[nH]nc(N)c34)cc2)c1 [Example 33, 1-{4-[(3-amino-1H-indazol-4-yl)ethynyl]phenyl}-3-(2-fluoro-5-methylphenyl)urea] | 7.05 | 6.79 |  | 
20 | O=C(Nc1ccc(C#Cc2ccc3nccn3n2)cc1)Nc1ccc(F)c(Cl)c1 [Example 5, 1-(3-chloro-4-fluorophenyl)-3-[4-(imidazo[1,2-b]pyridazin-6-ylethynyl)phenyl]urea] | 7.02 |  |  | 
21 | Nc1n[nH]c2cccc(C#Cc3cccc(NC(=O)Nc4ccccc4)c3)c12 [Example 32, 1-{3-[(3-amino-1H-indazol-4-yl)ethynyl]phenyl}-3-phenylurea] | 7.39 | 7.70 |  | 
22 | Cc1cccc(NC(=O)Nc2ccc(C#Cc3ccc4nc(NC(=O)C5CC5)cn4n3)cc2)c1 [Example 12, N-(6-{[4-({[(3-methylphenyl)amino]carbonyl}amino)phenyl]ethynyl}imidazo[1,2-b]pyridazin-2-yl)cyclopropanecarboxamide] | 5.88 | < 5.00 | < 5.00 | 
